Where a name gives a salt, the structure may show the parent alone. Read-outs that look alike come from different tables or passages of the source.

We go through 16 compounds from patent US7601846B2, “Compounds having activity as inhibitors of apoptosis” (The Regents of the University of California, priority 2001, dated 2009).

In one data set the test system is Murine thymocytes. The experiment in a line: Dexamethasone-induced thymocyte apoptosis assay (DiOC6/PI staining, flow cytometry). Format: cell-based. As to conditions: Mus musculus, 6 hours; for EC50: 5 μM dexamethasone; for viability at 5 µM: compound tested at 5 μM (footnote b); for viability at 5 µM / viability at 10 µM: challenged with DEX, control 72 ± 4, DEX alone 36 ± 7, read-out: Average cell survival (%) Average alive cells (%); for viability at 10 µM: compound 10 μM. The procedure: All of the compounds were screened in the thymocyte assay for cytotoxicity and their ability to prevent dexamethasone-induced cell death. Murine thymocytes were exposed to 10 μM or 5 μM of each compound in the presence or absence of DEX for six hours and then assayed for their in vitro viability by 3,3′-dihexyloxacarbocyanine iodide (DiOC6) and propidium iodide (PI) staining, and flow cytometry. When cell death signals converge on the mitochondria, there is a loss of the inner mitochondrial membrane potential and cells can no longer retain the dye DiOC6 as an indicator of apoptosis. Once cells lose the integrity of the outer cell membrane, then the dye propidium iodide is no longer excluded from these cells. The percentage of viable cells, which retained DiOC6 and excluded PI was compared to cells treated with DEX alone.
Apoptosis assays. Thymocytes were harvested from young C57B1/6 mice and cultured at 37° C. in 5% CO2 in RPMI 1640 containing 10% FBS, 1% Penicillin/Streptomycin (Gibco BRL, Rockville, Md.). Thymocytes were plated at a density of 10^7 cells/mL and pre-incubated with 5-10 μM of each compound (from 10 mM stock in DMSO) for 30 minutes before induction of apoptosis. Apoptosis was induced with 5 μM dexamethasone or by exposure to 6 Gy gamma radiation. After 6 hours, cell apoptosis was assayed by propidium iodide (PI) and 3,3′ dihexyloxacarbocyanine iodide (DiOC6) staining. The cells were removed from the plate and incubated for 30 minutes in medium with 40 nM DiOC6 and 5 μg/mL PI and then analyzed by flow cytometry in a FACS caliber (Beckton-Dickinson, San Jose, Calif.). Viable cells had high DiOC6 (FL-1) and low PI (FL-3), whereas apoptotic cells had low DiOC6 (FL-1) and low PI (FL-3). To evaluate the EC50s the thymocytes were pre-exposed to graded concentrations of selected compounds for 30 minutes and then apoptosis was induced with 5 μM dexamethasone. After 6 hours the cells were harvested and stained as above.
The concentration (EC50) of each compound that inhibited dexamethasone-induced cell death by 50% was determined by nonlinear regression fitting of the data to a one-site model. Pseudo Hill slopes were determined by nonlinear regression fit of the data to a sigmoidal dose-response equation (variable slope): % viability=minimum % viability+(maximum−minimum % viability)/[1+10(log EC50−X)^n], where X is the logarithm of inhibitor concentration, and n is the pseudo Hill slope and the maximum and minimum % viability were experimentally determined after dexamethasone exposure and drug treatment. EC50 values and 95% confidence intervals (CI) were derived from the sigmoid fits to the percent control transformed data shown using GraphPad Prism version 4.0b for Macintosh (GraphPad Software, San Diego, Calif.).
(In general: Flow cytometry measures light scatter and fluorescence of single cells or particles in a stream.)

In data set [1] the test system is Bax, PUMA, noxa, DR5 (killer) mRNA. As to the kind of experiment: Modulation of proapoptotic genes by real time PCR in DEX-treated thymocytes. Format: cell-based, mouse. The protocol:
Four proapoptotic genes were tested by real time PCR. […] PUMA and noxa belong to the BH3-only protein subclass while Bax is a multidomain member of the family. DR5 (also called killer) is an apoptosis-inducing membrane receptor for tumor necrosis factor-related apoptosis-inducing ligand (also called TRAIL and Apo2 ligand). DR5 is a transcriptional target of p53, and its over expression induces cell death in vitro (Finnberg et al., Molecular and Cellular Biology 2005, 25, 2000-2013).
On the technique in general: In qPCR the cycle at which signal appears reflects the starting amount.

A further data set deals with PUMA. The experiment in a line: PUMA protein expression in DEX-treated thymocytes (western blot). The class given is cell-based, mouse. As to conditions: thymocytes pretreated with 10 μM compound, 5 μM dexamethasone 6 hours, FIG. 6. The procedure:
Thymocytes were pretreated with 10 μM of the indicated compounds and then exposed to 5 μM of dexamethasone for 6 hours. The cytosolic proteins were fractionated and then separated on a 4-12% gradient gel by SDS-PAGE and transferred to a PDVF membrane, which was probed with antibodies to PUMA and actin.
After removal of medium, cells were disrupted in lysis buffer (10 mM HEPES pH 7.9, 10 mM KCl, 0.1 mM EDTA, 0.1 mM EGTA, 1 mM dithiothreitol, 0.5 mM phenylmethylsulfonyl fluoride, and 0.6% NP-40) on ice. The nuclei were separated by centrifugation and the cytoplasmic sample removed. The nuclear pellets were resuspended in (20 mM HEPES pH 7.9, 0.4 M NaCl, 1.0 mM EDTA, 1.0 mM EGTA, 1 mM dithiothreitol, 0.1 mM phenylmethylsulfonyl fluoride) and the insoluble material was removed by centrifugation. The samples were heated to 70° C. for 10 minutes in loading buffer with 10 mM DTT. Each lane of an SDS-PAGE gel was loaded with 20 μg of protein. After electrophoresis, the proteins were transferred to a polyvinylidene difluoride (PVDF) membrane, blocked with 2% I-block™ (Tropix Inc, Bedford, Mass.) containing 0.05% Tween-20 in PBS, and then incubated with anti-PUMA (AbCam, Inc., Cambridge, Mass.). Horseradish peroxidase-conjugated anti-IgG (Santa Cruz Laboratories, Santa Cruz, Calif.) was used as the secondary antibody. […]
(In general: Immunoblotting shows a protein as a band on a membrane.)

Data set [2] concerns spontaneous apoptosis and fludarabine-induced apoptosis. The experiment in a line: Protection against spontaneous and fludarabine-induced apoptosis (FIG. 2). Format: cell-based.
The conditions of data set [3]: cited from earlier work.
Where [4] appears, read: Table 2, 30 minutes pre-exposure, read-out: EDEC50 (μM) of compounds in thymocyte apoptosis assay (first value in cell) (converted).
[5] abbreviates: mouse thymocytes treated with DEX, FIG. 5.
Where [6] appears, read: Table 1, 30 minutes pre-exposure, read-out: EDEC50 (μM) of compounds in thymocyte apoptosis assay.

For the compound `Br.c1ccc2c(c1)sc1nc(-c3ccc(N4CCCC4)cc3)cn12` [Compound 15, 2-(4-Pyrrolidin-1-yl-phenyl)-benzo[d]imidazo[2,1-b]thiazole hydrobromide salt], in the data set with Murine thymocytes (setting [4]), the EC50 was 0.35 µM. Besides, the viability at 5 µM with Murine thymocytes was determined as 78%. In addition, in data set [1] (setting [5]), the “mRNA level of bax and killer relative to control” value is “below it”; the “mRNA level of proapoptotic genes (Bax, PUMA, noxa, DR5) relative to control” value is listed as “close to that of the control”. Also, in the data set with PUMA, the “PUMA protein expression (western blot)” value is “total inhibition”.

Consider `Cc1ccc(-c2cn3c4c(sc3n2)CCCC4)cc1` [IBT], for which, in data set [2], the “Effect against fludarabine-induced apoptosis” value is listed as “protective effect” and the “Effect against spontaneous apoptosis” value is given as “protective effect”. For `Cc1ccc(-c2cn3c(n2)sc2cc(N)ccc23)cc1` [Compound 7, 2-p-Tolyl-imidazo[2,1-b]benzothiazol-7-ylamine], the viability at 10 µM in the data set on Murine thymocytes turned out to be 27%. Consider `Cc1ccc(-c2cn3c(n2)sc2cc(Br)ccc23)cc1` [Compound 9, 7-Bromo-2-p-tolylimidazo[2,1-b]benzothiazole hydrobromide salt], for which the viability at 10 µM in the data set on Murine thymocytes was found to be 39%. Regarding `Cc1ccc(C(=O)Cn2c3c(sc2=N)CCCC3)cc1` [PFT-α, 2-(2-imino-4,5,6,7-tetrahydro-benzothiazol-3-yl)-1-p-tolyl-ethanone hydrobromide, reference compound], the “PUMA protein expression (western blot)” value in the data set on PUMA is on record as “partial inhibition”. For the same compound, the “Stability under physiologic conditions” value in data set [3] is on record as “not stable”. As to `c1ccc2cc(-c3ccc(-c4cn5c(n4)sc4ccccc45)cc3)ccc2c1` [Compound 14], the EC50 with Murine thymocytes (setting [4]) is 4.02 µM. In addition, the viability at 5 µM in the data set with Murine thymocytes turned out to be 75%. On the same counts, the results for `Cc1ccc(-c2cn3c(n2)sc2ccccc23)cc1` [Compound 13] are 1.22 µM and 73%. On to `C[C@@H]1C[C@H]2[C@@H]3CCC4=CC(=O)C=C[C@]4(C)[C@@]3(F)[C@@H](O)C[C@]2(C)[C@@]1(O)C(=O)CO` [Dexamethasone, reference compound], for which the “Increase of PUMA mRNA upon treatment” value in data set [1] (mouse thymocytes, DEX treatment alone) is listed as “over 9 fold”. As for `Cc1ccc(-c2nc3sc4ccccc4n3c2Br)cc1` [Compound 6, 3-Bromo-2-p-tolyl-imidazo[2,1-b]benzothiazole], the viability at 5 µM with Murine thymocytes turned out to be 24%.

In the case of `Cc1ccc(-c2cn3c(n2)sc2cc(O)ccc23)cc1` [Compound 4, 2-p-Tolyl-benzo[d]imidazo[2,1-b]thiazol-7-ol], the viability at 5 µM in the data set on Murine thymocytes is 19%. Regarding `Brc1ccc(-c2cn3c(n2)sc2ccccc23)cc1` [Compound 5], the viability at 10 µM in the data set with Murine thymocytes turned out to be 22%. In the case of `c1ccc(-c2ccc(-c3cn4c(n3)sc3ccccc34)cc2)cc1` [Compound 10], in the data set on Murine thymocytes (setting [4]), the EC50 was 8.12 µM. Moreover, the viability at 10 µM with Murine thymocytes was determined as 59%.

As for `c1ccc(-c2cn3c(n2)sc2ccccc23)cc1` [Compound 12], the EC50 in the data set on Murine thymocytes (setting [6]) came to 10.2 µM. Also, the viability at 10 µM with Murine thymocytes came out at 73%. Turning to `c1ccc2c(c1)sc1nc(-c3ccc(C4CCCC4)cc3)cn12` [Compound 8, 2-(4-Cyclopentyl-phenyl)-imidzxo[2,1-b]benzothiazoles hydrobromide salt], the viability at 10 µM in the data set with Murine thymocytes is 36%.

`COc1ccc2c(c1)sc1nc(-c3ccc(C)cc3)cn12` [Compound 11, 7-Methoxy-2-p-tolyl-imidazo[2,1-b]benzothiazole hydrobromide salt]: the EC50 in the data set on Murine thymocytes (setting [6]) worked out at 4.44 µM. Moreover, the viability at 5 µM in the data set on Murine thymocytes turned out to be 68%.

`c1coc(-c2cn3c(n2)sc2ccccc23)c1` [Compound 3, 2-Furan-2-yl-imidazo[2,1-b]benzothiazole hydrobromide salt]: the viability at 10 µM in the data set on Murine thymocytes came out at 16%.
